The values below are quoted from earlier work in KR20140130881A, “보리코나졸을 함유하는 안정한 주사용 조성물” (동아에스티 주식회사, priority 2013, dated 2014).

A word on the aqueous solubility: it is the concentration that dissolves in the medium under given conditions.

Converted amounts (≈) assume the structure as drawn.

For `C[C@@H](c1ncncc1F)[C@](O)(Cn1cncn1)c1ccc(F)cc1F` [보리코나졸, (2R,3S)-2-(2,4-다이플루오로페닐)-3-(5-플루오로피리미딘-4-일)-1-(1H-1,2,4-트리아졸-1-일)부탄-2-올], the aqueous solubility (pH 3, acidic solution) is 200 µg/mL (≈ 573 µM). The solubility in water (water) is 700 µg/mL (≈ 2000 µM).
